The values below come from patent publication EP0145484B1, “Vancomycin purification improvement and product” (ELI LILLY AND COMPANY, priority 1983, dated 1985).

A short description of this data set: Stability of bulk samples on storage. Conditions: three lots prepared by the method of Example 2, stored at 21-28°C in polyethylene containers; over a twelve month period; 525600 min. Format: physicochemical. On the procedure:
The vancomycin diphosphate crystal form provided by this invention is a highly crystalline solid when hydrated that is stable over prolonged periods of time. The stability of bulk samples of vancomycin diphosphate was determined by preparing three lots of the compound by the method of Example 2. Samples of the three individual lots were stored at 21-28°C in polyethylene containers. Various physical parameters of each of the three lots were analyzed at zero, six, twelve and eighteen months.

On to vancomycin diphosphate, for which the “initial biological activity retained” value was “more than 90%”.
